# “Also recorded” adds a separate entry of the source.
# Key:
# [1] = test system: croton oil-induced inflammation of the rat ear; test: topical anti-inflammatory model, croton oil irritant solution on rat ears (based on Fregnan & Torsello 1975); format: in vivo, Rats, Charles River Wistar strain, male; conditions: for reduction of the increase in ear weight / activity (in words): topical
# Procedure: 1. Compounds (5) and (6) were tested for anti-inflammatory activity in a topical model based on that described by Fregnan G. B. & Torsello, A. L. (1975) Current Therapeutic Research 17, No. 4, 375-381.
# In the test the activity of the novel compounds was compared with that of naproxen. In outline the method is as follows:
# Rats, Charles River Wistar strain, .male. 10/group. Weight range 220-260 g.
# Irritant solution applied consists of 74% diethyl ether (20% pyridine, 5% dist. H2 O, 1% croton oil. 0.05 ml is placed on each ear, compound being included in the irritant solution on one ear. 6 hours later the ears are removed by cutting along the hairline and weighed.
# -ve controls--no irritant solution.
# +ve controls--irritant solution on both ears.
# [2] = test system: cantharidin-induced inflammation of the rat ear; test: anti-inflammatory test induced by the application of cantharidin to the rat ear (Boris & Hurley 1977); format: in vivo, male Wistar rats; conditions: for Untreated Ear Wt mg ± s.e.: normal control 92.9, inflamed control 146.3; for Treated Ear Wt mg ± s.e.: normal control 95.0, inflamed control 162.0
# Procedure: 2. Activity of Compound (5) in an anti-inflammatory test induced by the application of cantharidin to the rat ear
# This model developed by Boris A and Hurley M., (1977) J. Invest. Dermatology, 68, 161-164 is claimed to be selective for the anti-inflammatory activity of corticosteroids. Groups of ten male Wistar rats received 0.05 ml per ear of a solution of 400 μg of cantharidin plus or minus compound in tetrahydrofuran. […]
# [3] = test system: croton oil-induced inflammation of the ear; test: croton oil model of topical anti-inflammatory activity, dose response (1% croton oil in tetrahydrofuran); format: in vivo, rat; conditions: for Treated Ear Wt mg ± s.e.: normal control 98.5, inflamed control 126.1; for Untreated Ear Wt mg ± s.e.: normal control 99.1, inflamed control 118.7; for ED50: 1% croton oil in tetrahydrofuran
# Excerpt: 3. A direct comparison of the activity of Compound (12) and Compound (5) in the croton oil model of topical anti-inflammatory activity
# [4] = 2 mg/rat, first experiment (compounds 5, 6, naproxen), -ve control 128.4, +ve control 163.2, 6 hours
# [5] = 2 mg/rat, first experiment, -ve control 122.5, +ve control 151.8, 6 hours
# [6] = 2 mg/rat, first experiment, 6 hours
SMILES,"Mean weight of Treated Ear [1, 4] [m.g.]","Mean weight of Untreated Ear [1, 5] [m.g.]","Treated Ear, % in parentheses (reduction of ear weight increase vs +ve control) [1, 6] [%]","Untreated Ear, % in parentheses (reduction of ear weight increase vs +ve control) [1, 6] [%]",reduction of the increase in ear weight / activity (in words) [1],Untreated Ear Wt mg ± s.e. ([2]; 4 mg/ear) [mg],Treated Ear Wt mg ± s.e. ([2]; 4 mg/ear) [mg],Treated Ear % Inhibition ([2]; 4 mg/ear) [%],Untreated Ear % Inhibition ([2]; 4 mg/ear) [%],Treated Ear Wt mg ± s.e. ([3]; 1 mg/ear) [mg],Untreated Ear Wt mg ± s.e. ([3]; 1 mg/ear) [mg],Treated Ear % Inhibition ([3]; 1 mg/ear) [%],Untreated Ear % Inhibition ([3]; 1 mg/ear) [%],Treated Ear Wt mg ± s.e. ([3]; 2 mg/ear) [mg],Untreated Ear Wt mg ± s.e. ([3]; 2 mg/ear) [mg],Treated Ear % Inhibition ([3]; 2 mg/ear) [%],Untreated Ear % Inhibition ([3]; 2 mg/ear) [%],Treated Ear Wt mg ± s.e. ([3]; 4 mg/ear) [mg],Untreated Ear Wt mg ± s.e. ([3]; 4 mg/ear) [mg],Treated Ear % Inhibition ([3]; 4 mg/ear) [%],further results
CC(=O)CCC1CCC2=CC(=O)C=CC2(C)C1 (stereo not shown) [Compound (6)],134.3 ± 2.3,159.1 ± 5.1,83,-25,appeared equi-active with Compound (5),,,,,,,,,,,,,,,,
"COc1ccc2cc([C@H](C)C(=O)O)ccc2c1 [Naproxen, reference compound]",139.5 ± 3.0,162.2 ± 4.9,68,-35,,145.0,184.8,-34,2,,,,,,,,,,,,"Mean weight of Treated Ear ([1]; 2 mg/rat, second experiment (with compound 12), -ve control 127.0, +ve control 152.2): 141.2 ± 3.7 m.g.; Mean weight of Untreated Ear ([1]; 2 mg/rat, second experiment, -ve control 130.1, +ve control 159.4): 155.9 ± 4.1 m.g.; Treated Ear, % in parentheses (reduction of ear weight increase vs +ve control) ([1]; 2 mg/rat, second experiment): 44%; Untreated Ear, % in parentheses (reduction of ear weight increase vs +ve control) ([1]; 2 mg/rat, second experiment): 12%"
"CC(=O)CCC1CCC2=CC(=O)CCC2(C)C1 (stereo not shown) [Compound (5), 4a-Methyl-6-(3'-oxobutyl)-2,3,4,4a,5,6,7,8-octahydro-2-naphthalenone]",135.4 ± 3.3,169.0 ± 7.4,80,-59,significantly reduced the increase in ear weight brought about by the irritant solution; also recorded: The activity was at the same dose as that of naproxen,134.3,140.5,32,22,124.5 ± 4.6,119.9 ± 4.7,6,-6,116.4 ± 3.8,119.9 ± 5.1,35,-6,108.2 ± 2.8,115.5 ± 5.6,65,Untreated Ear % Inhibition ([3]; 4 mg/ear): 16%; ED50 [3]: 2.8 mg/ear
"CC(=O)CCC1CCC2=CC(=O)CCC2C1 (stereo not shown) [Compound (12), 6-(3'-Oxobutyl)-2,3,4,4a,5,6,7,8-octahydronaphthalene-2-one]",,,,,,,,,,116.1 ± 4.6,112.6 ± 5.5,36,31,109.8 ± 3.2,117.0 ± 2.8,59,9,106.3 ± 3.4,120.6 ± 4.5,72,"Mean weight of Treated Ear ([1]; 4 mg/rat, second experiment (compound 12), -ve control 127.0, +ve control 152.2): 136.9 ± 2.9 m.g.; Mean weight of Untreated Ear ([1]; 4 mg/rat, second experiment, -ve control 130.1, +ve control 159.4): 148.0 ± 3.9 m.g.; Treated Ear, % in parentheses (reduction of ear weight increase vs +ve control) ([1]; 4 mg/rat, second experiment): 61%; Untreated Ear, % in parentheses (reduction of ear weight increase vs +ve control) ([1]; 4 mg/rat, second experiment): 51%; Untreated Ear % Inhibition ([3]; 4 mg/ear): -10%; ED50 [3]: 1.6 mg/ear; potency relative to Compound (5) ([3]; dose response against 1% croton oil in tetrahydrofuran): of the order of two fold more potent than Compound (5)"
C[C@]12CCC(=O)C=C1CC[C@@H]1[C@@H]2[C@@H](O)C[C@@]2(C)[C@H]1CC[C@]2(O)C(=O)CO [Hydrocortisone],,,,,,,,,,,,,,,,,,,,,Untreated Ear Wt mg ± s.e. ([2]; 2 mg/ear): 142.0 mg; Treated Ear Wt mg ± s.e. ([2]; 2 mg/ear): 133.1 mg; Treated Ear % Inhibition ([2]; 2 mg/ear): 43%; Untreated Ear % Inhibition ([2]; 2 mg/ear): 8%
